Assays:
[1] = molecular target: T1, SMYD3 (Homo sapiens (Human), UniProt Q9H7B4); test: SMYD3 cell assay (Trimethyl-MEKK2 In-Cell Western in 293T/17 cells); assay type: cell-based; conditions: average of n = 1 to n = 50; read-out: SMYD3 Cell IC50
Outline: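 In-Cell Western ratio of trimethyl-Lys260 MEKK2 to anti-flag signal; percent inhibition from DMSO and maximum-inhibition controls, IC50 by non-linear regression, triplicates.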

[2] = molecular target: T1, SMYD3; test: SMYD3 biochemical assay (SPA, 3H-SAM methylation of MEKK2 protein substrate); conditions: average of n = 1 to n = 50; read-out: SMYD3 Biochem IC50
Outline: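 Tritium incorporation into GST-MEKK2 is counted by scintillation proximity after citric acid bead capture. Native human SMYD3 is preincubated with test compound for 30 min at room temperature at pH 8.0 (Tris-Cl, TCEP, BSG, Tween 20) before 3H-SAM and substrate are added; cold SAM at 100 uM final stops turnover.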

T1 sequence (Q9H7B4 whole entry): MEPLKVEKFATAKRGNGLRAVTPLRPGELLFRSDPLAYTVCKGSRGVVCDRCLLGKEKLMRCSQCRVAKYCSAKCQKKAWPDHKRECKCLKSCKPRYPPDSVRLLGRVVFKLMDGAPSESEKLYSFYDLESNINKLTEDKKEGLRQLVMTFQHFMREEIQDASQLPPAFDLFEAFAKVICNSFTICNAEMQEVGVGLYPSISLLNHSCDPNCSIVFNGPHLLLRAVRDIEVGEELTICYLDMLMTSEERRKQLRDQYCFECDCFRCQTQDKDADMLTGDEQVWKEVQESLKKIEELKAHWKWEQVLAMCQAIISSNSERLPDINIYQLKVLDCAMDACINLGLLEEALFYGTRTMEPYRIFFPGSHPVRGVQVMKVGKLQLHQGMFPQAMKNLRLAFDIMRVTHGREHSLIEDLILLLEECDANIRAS

| IC50 [1] [µM] | IC50 [2] [µM] | SMILES |
| --- | --- | --- |
| 0.731 | 0.0969 | C[C@H]1CN(S(=O)(=O)NC2CCN(C)CC2)CC[C@H]1NC(=O)c1cc(C2CC2)on1 [compound 667, 5-cyclopropyl-N-((3S,4R)-3-methyl-1-(N-(1-methylpiperidin-4-yl)sulfamoyl)piperidin-4-yl)isoxazole-3-carboxamide] |
| 0.576 | 0.101 | C[C@H]1CN(S(=O)(=O)N(C)C2CCN(C)CC2)CC[C@H]1NC(=O)c1cc(C2CC2)on1 [compound 668, 5-cyclopropyl-N-((3S,4R)-3-methyl-1-(N-methyl-N-(1-methylpiperidin-4-yl)sulfamoyl)piperidin-4-yl)isoxazole-3-carboxamide] |
| 0.398 | 0.102 | C[C@@H]1CN(S(=O)(=O)N2CC[C@H](NC(=O)c3cc(C4CC4)on3)C[C@@H]2C)CCN1C [compound 669, 5-cyclopropyl-N-((2S,4S)-1-(((R)-3,4-dimethylpiperazin-1-yl)sulfonyl)-2-methylpiperidin-4-yl)isoxazole-3-carboxamide] |
| 5.58 | 0.104 | C[C@@H]1C[C@H](NC(=O)c2cc(C3CC3)on2)CCN1C(=O)c1ccc(OCCN)cc1 [compound 671, N-((2R,4R)-1-(4-(2-aminoethoxy)benzoyl)-2-methylpiperidin-4-yl)-5-cyclopropylisoxazole-3-carboxamide] |
| 1.08 | 0.108 | C[C@H]1C[C@@H](NC(=O)c2cc(C3CC3)on2)CCN1S(=O)(=O)N(C)C1CCN(C)CC1 [compound 674, 5-cyclopropyl-N-((2S,4S)-2-methyl-1-(N-methyl-N-(1-methylpiperidin-4-yl)sulfamoyl)piperidin-4-yl)isoxazole-3-carboxamide] |
| 1.37 | 0.111 | CNCc1ccc(C(=O)N2CC[C@@H](NC(=O)c3cc(C4CC4)on3)C[C@H]2C)cc1 [compound 675, 5-cyclopropyl-N-((2R,4R)-2-methyl-1-(4-((methylamino)methyl)benzoyl)piperidin-4-yl)isoxazole-3-carboxamide] |
| > 10 | 0.111 | C[C@@H]1C[C@H](NC(=O)c2cc(C3CC3)on2)CCN1S(=O)(=O)CC1CCN(CCN2CCOCC2)CC1 [compound 676, 5-cyclopropyl-N-((2R,4R)-2-methyl-1-(((1-(2-morpholinoethyl)piperidin-4-yl)methyl)sulfonyl)piperidin-4-yl)isoxazole-3-carboxamide] |
| 5.31 | 0.111 | C[C@H]1C[C@@H](NC(=O)c2cc(C3CC3)on2)CCN1S(=O)(=O)N(C)CCN [compound 677, N-((2S,4S)-1-(N-(2-aminoethyl)-N-methylsulfamoyl)-2-methylpiperidin-4-yl)-5-cyclopropylisoxazole-3-carboxamide] |
| 1.3 | 0.113 | C[C@H](N)c1ccc(C(=O)N2CC[C@@H](NC(=O)c3cc(C4CC4)on3)C[C@H]2C)cc1 [compound 679, N-((2R,4R)-1-(4-((S)-1-aminoethyl)benzoyl)-2-methylpiperidin-4-yl)-5-cyclopropylisoxazole-3-carboxamide] |
| 0.592 | 0.119 | C[C@H]1C[C@@H](NC(=O)c2cc(C3CC3)on2)CCN1S(=O)(=O)N1CCN(C)C(C)(C)C1 [compound 680, 5-cyclopropyl-N-((2S,4S)-2-methyl-1-((3,3,4-trimethylpiperazin-1-yl)sulfonyl)piperidin-4-yl)isoxazole-3-carboxamide] |
| 1.25 | 0.121 | CN1CCC(CS(=O)(=O)N2CC[C@H](NC(=O)c3cc(C4CC4)on3)C[C@@H]2Cc2ccccc2)CC1 [compound 682, N-((2S,4S)-2-benzyl-1-(((1-methylpiperidin-4-yl)methyl)sulfonyl)piperidin-4-yl)-5-cyclopropylisoxazole-3-carboxamide] |
| 1.78 | 0.122 | C[C@@H]1C[C@H](NC(=O)c2cc(C3CC3)on2)CCN1C(=O)c1ccc(N2CCNCC2)nc1 [compound 683, 5-cyclopropyl-N-((2R,4R)-2-methyl-1-(6-(piperazin-1-yl)nicotinoyl)piperidin-4-yl)isoxazole-3-carboxamide] |
| 0.254 | 0.124 | C[C@@H]1CN(S(=O)(=O)N2CCN(C)CC2)[C@H](C)C[C@@H]1NC(=O)c1cc(C2CC2)on1 [compound 685, 5-cyclopropyl-N-((2R,4S,5R)-2,5-dimethyl-1-((4-methylpiperazin-1-yl)sulfonyl)piperidin-4-yl)isoxazole-3-carboxamide] |
| 1.54 | 0.129 | C[C@@H]1C[C@H](NC(=O)c2cc(C3CC3)on2)CCN1C(=O)c1ccc(CN(C)C)cc1 [compound 686, 5-cyclopropyl-N-((2R,4R)-1-(4-((dimethylamino)methyl)benzoyl)-2-methylpiperidin-4-yl)isoxazole-3-carboxamide] |
| 0.783 | 0.131 | C[C@@H]1CN(S(=O)(=O)CCN)[C@H](C)C[C@@H]1NC(=O)c1cc(C2CC2)on1 [compound 688, N-((2R,4S,5R)-1-((2-aminoethyl)sulfonyl)-2,5-dimethylpiperidin-4-yl)-5-cyclopropylisoxazole-3-carboxamide] |
| 1.95 | 0.144 | O=C(N[C@H]1CCN(S(=O)(=O)CC2CCNCC2)[C@H](Cc2ccccc2)C1)c1cc(C2CC2)on1 [compound 691, N-((2R,4S)-2-benzyl-1-((piperidin-4-ylmethyl)sulfonyl)piperidin-4-yl)-5-cyclopropylisoxazole-3-carboxamide] |
| 4.04 | 0.156 | C[C@H]1CN(S(=O)(=O)CC2CCN(CCN3CCCCC3)CC2)CC[C@H]1NC(=O)c1cc(C2CC2)on1 [compound 693, 5-cyclopropyl-N-((3S,4R)-3-methyl-1-(((1-(2-(piperidin-1-yl)ethyl)piperidin-4-yl)methyl)sulfonyl)piperidin-4-yl)isoxazole-3-carboxamide] |
| 0.952 | 0.157 | C[C@H]1CN(S(=O)(=O)CCN)[C@@H](C)C[C@H]1NC(=O)c1cc(C2CC2)on1 [compound 694, N-((2S,4R,5S)-1-((2-aminoethyl)sulfonyl)-2,5-dimethylpiperidin-4-yl)-5-cyclopropylisoxazole-3-carboxamide] |
| 1.83 | 0.169 | C[C@H]1C[C@@H](NC(=O)c2cc(C3CC3)on2)CCN1S(=O)(=O)C(CCN)c1ccccc1 (stereo partly drawn) [compound 695, N-((2S,4S)-1-((3-amino-1-phenylpropyl)sulfonyl)-2-methylpiperidin-4-yl)-5-cyclopropylisoxazole-3-carboxamide] |

| SMILES | IC50 [1] [µM] | IC50 [2] [µM] |
| --- | --- | --- |
| O=C(N[C@H]1C[C@H]2CC[C@@H](C1)N2S(=O)(=O)CCCNCCN1CCOCC1)c1cc(C2CC2)on1 [compound 670, 5-cyclopropyl-N-((1R,3r,5S)-8-((3-((2-morpholinoethyl)amino)propyl)sulfonyl)-8-azabicyclo[3.2.1]octan-3-yl)isoxazole-3-carboxamide] | 0.886 | 0.103 |
| CN(C)CCS(=O)(=O)N1[C@@H]2CC[C@H]1C[C@@H](NC(=O)c1cc(C3CC3)on1)C2 [compound 672, 5-cyclopropyl-N-((1R,3r,5S)-8-((2-(dimethylamino)ethyl)sulfonyl)-8-azabicyclo[3.2.1]octan-3-yl)isoxazole-3-carboxamide] | 0.388 | 0.104 |
| O=C(N[C@H]1C[C@H]2CCC[C@@H](C1)N2S(=O)(=O)CC1CCNCC1)c1cc(C2CC2)on1 [compound 673, 5-cyclopropyl-N-((1R,3r,5S)-9-((piperidin-4-ylmethyl)sulfonyl)-9-azabicyclo[3.3.1]nonan-3-yl)isoxazole-3-carboxamide] | 1.68 | 0.106 |
| CN(C1CCNCC1)S(=O)(=O)N1[C@@H]2CCC[C@H]1C[C@@H](NC(=O)c1cc(C3CC3)on1)C2 [compound 678] | 2.66 | 0.113 |
| CN1CCN(S(=O)(=O)N2[C@@H]3CC[C@H]2C[C@@H](NC(=O)c2cc(C4CC4)on2)C3)CC1CO (stereo partly drawn) [compound 684, 5-cyclopropyl-N-((1R,3r,5S)-8-((3-(hydroxymethyl)-4-methylpiperazin-1-yl)sulfonyl)-8-azabicyclo[3.2.1]octan-3-yl)isoxazole-3-carboxamide] | 0.923 | 0.122 |
| CN(C1CCNCC1)S(=O)(=O)N1[C@@H]2CCC[C@H]1C[C@H](NC(=O)c1cc(C3CC3)on1)C2 [compound 687, 5-cyclopropyl-N-((1R,3s,5S)-9-(N-methyl-N-(piperidin-4-yl)sulfamoyl)-9-azabicyclo[3.3.1]nonan-3-yl)isoxazole-3-carboxamide] | 1.71 | 0.13 |
| CC1CCCN1CCS(=O)(=O)N1[C@@H]2CC[C@H]1C[C@@H](NC(=O)c1cc(C3CC3)on1)C2 (stereo partly drawn) [compound 689, 5-cyclopropyl-N-((1R,3r,5S)-8-((2-(2-methylpyrrolidin-1-yl)ethyl)sulfonyl)-8-azabicyclo[3.2.1]octan-3-yl)isoxazole-3-carboxamide] | 0.764 | 0.131 |
| O=C(N[C@H]1C[C@H]2CC[C@@H](C1)N2S(=O)(=O)CCN1CCC(O)C1)c1cc(C2CC2)on1 (stereo partly drawn) [compound 690, 5-cyclopropyl-N-((1R,3r,5S)-8-((2-(3-hydroxypyrrolidin-1-yl)ethyl)sulfonyl)-8-azabicyclo[3.2.1]octan-3-yl)isoxazole-3-carboxamide] | 0.553 | 0.138 |
| CC1CN(S(=O)(=O)N2[C@@H]3CC[C@H]2C[C@@H](NC(=O)c2cc(C4CC4)on2)C3)CC(C)N1 (stereo partly drawn) [compound 692, 5-cyclopropyl-N-((1R,3r,5S)-8-((3,5-dimethylpiperazin-1-yl)sulfonyl)-8-azabicyclo[3.2.1]octan-3-yl)isoxazole-3-carboxamide] | 0.637 | 0.148 |

Source: US10577363B2, “Substituted piperidine compounds” (EPIZYME, INC., priority 2014, dated 2020)
